Data taken from PubChem BioAssay (NCI).
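Test compounds were applied to cells in 96-well plates for 48 hours at 5 doses. TGI denotes the concentration required for complete inhibition of growth.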 Calls of active or inactive are those of the source. Cut-off read from the data, not from the text of the source: active = GI50 below about 0.43 µM; inactive = the rest.

How the values were obtained:
Assay in all cases: inhibition of tumour cell growth, NCI panel, 48 h
T-47D breast = test system: T-47D breast
OVCAR-8 ovarian = test system: OVCAR-8 ovarian
MDA-MB-231 breast = test system: MDA-MB-231 breast
SN12C renal = test system: SN12C renal
U251 CNS = test system: U251 CNS
ACHN renal = test system: ACHN renal
NCI-H460 lung = test system: NCI-H460 lung
HS 578T breast = test system: HS 578T breast
UACC-257 melanoma = test system: UACC-257 melanoma
OVCAR-3 ovarian = test system: OVCAR-3 ovarian
DU-145 prostate = test system: DU-145 prostate
LOX IMVI melanoma = test system: LOX IMVI melanoma
SR leukemia = test system: SR leukemia
M14 melanoma = test system: M14 melanoma
CAKI-1 renal = test system: CAKI-1 renal
K-562 leukemia = test system: K-562 leukemia
NCI-H226 lung = test system: NCI-H226 lung
TK-10 renal = test system: TK-10 renal
SNB-75 CNS = test system: SNB-75 CNS
HCC-2998 colon = test system: HCC-2998 colon
NCI/ADR-RES ovarian = test system: NCI/ADR-RES ovarian
SK-OV-3 ovarian = test system: SK-OV-3 ovarian
OVCAR-4 ovarian = test system: OVCAR-4 ovarian
SK-MEL-2 melanoma = test system: SK-MEL-2 melanoma
SW-620 colon = test system: SW-620 colon
MDA-N = test system: MDA-N
SF-295 CNS = test system: SF-295 CNS
RPMI-8226 leukemia = test system: RPMI-8226 leukemia
NCI-H522 lung = test system: NCI-H522 lung
HOP-92 NSCLC = test system: HOP-92 NSCLC
HCT-116 colon = test system: HCT-116 colon
PC-3 prostate = test system: PC-3 prostate
HL-60(TB) leukemia = test system: HL-60(TB) leukemia
SK-MEL-28 melanoma = test system: SK-MEL-28 melanoma
NCI-H23 lung = test system: NCI-H23 lung
UO-31 renal = test system: UO-31 renal
HCT-15 colon = test system: HCT-15 colon
OVCAR-5 ovarian = test system: OVCAR-5 ovarian
CCRF-CEM leukemia = test system: CCRF-CEM leukemia
IGROV1 ovarian = test system: IGROV1 ovarian
SNB-19 CNS = test system: SNB-19 CNS
A549 NSCLC = test system: A549 NSCLC
HOP-62 NSCLC = test system: HOP-62 NSCLC
MCF7 breast = test system: MCF7 breast
SK-MEL-5 melanoma = test system: SK-MEL-5 melanoma
COLO 205 colon = test system: COLO 205 colon
HT29 colon = test system: HT29 colon
MALME-3M melanoma = test system: MALME-3M melanoma
786-0 renal = test system: 786-0 renal
MOLT-4 leukemia = test system: MOLT-4 leukemia
MDA-MB-435 = test system: MDA-MB-435
SF-539 CNS = test system: SF-539 CNS
SF-268 CNS = test system: SF-268 CNS
UACC-62 melanoma = test system: UACC-62 melanoma
A498 renal = test system: A498 renal
KM12 colon = test system: KM12 colon
BT-549 breast = test system: BT-549 breast
RXF 393 renal = test system: RXF 393 renal
EKVX NSCLC = test system: EKVX NSCLC

Compound: CCP(=S)(CC)CCl
- TGI (T-47D breast): > 100 µM
- TGI (OVCAR-8 ovarian): > 100 µM
- TGI (MDA-MB-231 breast): > 100 µM
- TGI (SN12C renal): > 100 µM
- TGI (U251 CNS): > 100 µM
- TGI (ACHN renal): > 100 µM
- TGI (NCI-H460 lung): > 100 µM
- TGI (HS 578T breast): > 100 µM
- TGI (UACC-257 melanoma): > 100 µM
- TGI (OVCAR-3 ovarian): > 100 µM
- TGI (DU-145 prostate): > 100 µM
- TGI (LOX IMVI melanoma): > 100 µM
- TGI (SR leukemia): > 100 µM
- TGI (M14 melanoma): > 100 µM
- TGI (CAKI-1 renal): > 100 µM
- TGI (K-562 leukemia): > 100 µM
- TGI (NCI-H226 lung): > 100 µM
- TGI (TK-10 renal): > 100 µM
- TGI (SNB-75 CNS): > 100 µM
- TGI (HCC-2998 colon): > 100 µM
- TGI (NCI/ADR-RES ovarian): > 100 µM
- TGI (SK-OV-3 ovarian): > 100 µM
- TGI (OVCAR-4 ovarian): > 100 µM
- TGI (SK-MEL-2 melanoma): > 100 µM
- TGI (SW-620 colon): > 100 µM
- TGI (MDA-N): > 100 µM
- TGI (SF-295 CNS): > 100 µM
- TGI (RPMI-8226 leukemia): > 100 µM
- TGI (NCI-H522 lung): > 100 µM
- TGI (HOP-92 NSCLC): > 100 µM
- TGI (HCT-116 colon): > 100 µM
- TGI (PC-3 prostate): > 100 µM
- TGI (HL-60(TB) leukemia): > 100 µM
- TGI (SK-MEL-28 melanoma): > 100 µM
- TGI (NCI-H23 lung): > 100 µM
- TGI (UO-31 renal): > 100 µM
- TGI (HCT-15 colon): > 100 µM
- TGI (OVCAR-5 ovarian): > 100 µM
- TGI (CCRF-CEM leukemia): > 100 µM
- TGI (IGROV1 ovarian): > 100 µM
- TGI (SNB-19 CNS): > 100 µM
- TGI (A549 NSCLC): > 100 µM
- TGI (HOP-62 NSCLC): > 100 µM
- TGI (MCF7 breast): > 100 µM
- TGI (SK-MEL-5 melanoma): > 100 µM
- TGI (COLO 205 colon): > 100 µM
- TGI (HT29 colon): > 100 µM

Compound: [N-]=[N+]=NC1=CC(=O)c2cccc3cccc1c23
- TGI (MALME-3M melanoma): > 100 µM
- TGI (786-0 renal): > 100 µM
- TGI (MOLT-4 leukemia): > 100 µM
- TGI (T-47D breast): > 100 µM
- TGI (MDA-MB-231 breast): > 100 µM
- TGI (SN12C renal): > 100 µM
- TGI (U251 CNS): 71 µM
- TGI (ACHN renal): > 100 µM
- TGI (MDA-MB-435): > 100 µM
- TGI (NCI-H460 lung): > 100 µM
- TGI (HS 578T breast): 69.8 µM
- TGI (UACC-257 melanoma): 72.2 µM
- TGI (OVCAR-3 ovarian): > 100 µM
- TGI (DU-145 prostate): > 100 µM
- TGI (SF-539 CNS): 88 µM
- TGI (LOX IMVI melanoma): > 100 µM
- TGI (SR leukemia): > 100 µM
- TGI (SF-268 CNS): > 100 µM
- TGI (M14 melanoma): 82.8 µM
- TGI (CAKI-1 renal): > 100 µM
- TGI (K-562 leukemia): > 100 µM
- TGI (TK-10 renal): 88.2 µM
- TGI (SNB-75 CNS): 31 µM
- TGI (HCC-2998 colon): > 100 µM
- TGI (UACC-62 melanoma): 42.1 µM
- TGI (SK-OV-3 ovarian): 35.6 µM
- TGI (OVCAR-4 ovarian): > 100 µM
- TGI (SW-620 colon): > 100 µM
- TGI (MDA-N): > 100 µM
- TGI (SF-295 CNS): 84.3 µM
- TGI (A498 renal): 38.9 µM
- TGI (RPMI-8226 leukemia): > 100 µM
- TGI (HOP-92 NSCLC): 66.7 µM
- TGI (HCT-116 colon): > 100 µM
- TGI (PC-3 prostate): > 100 µM
- TGI (KM12 colon): > 100 µM
- TGI (HL-60(TB) leukemia): > 100 µM
- TGI (SK-MEL-28 melanoma): > 100 µM
- TGI (NCI-H23 lung): 82 µM
- TGI (UO-31 renal): > 100 µM
- TGI (OVCAR-5 ovarian): > 100 µM
- TGI (CCRF-CEM leukemia): > 100 µM
- TGI (IGROV1 ovarian): 51.8 µM
- TGI (SNB-19 CNS): > 100 µM
- TGI (A549 NSCLC): > 100 µM
- TGI (HOP-62 NSCLC): 48.1 µM
- TGI (MCF7 breast): > 100 µM
- TGI (SK-MEL-5 melanoma): 27.8 µM
- TGI (BT-549 breast): 63 µM
- TGI (COLO 205 colon): > 100 µM
- TGI (HT29 colon): > 100 µM
- TGI (RXF 393 renal): 34.5 µM

Compound: C[C@H](N)C(O)C/C=C\C/C=C\C/C=C\C/C=C\C/C=C\C/C=C\CCCCCCC(O)[C@H](C)N (stereo partly drawn)
- outcome (MALME-3M melanoma): inactive
- outcome (786-0 renal): inactive
- outcome (MOLT-4 leukemia): inactive
- outcome (T-47D breast): inactive
- outcome (OVCAR-8 ovarian): inactive
- outcome (MDA-MB-231 breast): inactive
- outcome (SN12C renal): inactive
- outcome (U251 CNS): inactive
- outcome (ACHN renal): inactive
- outcome (MDA-MB-435): inactive
- outcome (NCI-H460 lung): inactive
- outcome (HS 578T breast): inactive
- outcome (UACC-257 melanoma): inactive
- outcome (OVCAR-3 ovarian): inactive
- outcome (DU-145 prostate): inactive
- outcome (SF-539 CNS): inactive
- outcome (LOX IMVI melanoma): inactive
- outcome (SR leukemia): inactive
- outcome (EKVX NSCLC): inactive
- outcome (SF-268 CNS): inactive
- outcome (M14 melanoma): inactive
- outcome (CAKI-1 renal): inactive
- outcome (K-562 leukemia): inactive
- outcome (NCI-H226 lung): inactive
- outcome (TK-10 renal): inactive
- outcome (SNB-75 CNS): inactive
- outcome (HCC-2998 colon): inactive
- outcome (UACC-62 melanoma): inactive
- outcome (SK-OV-3 ovarian): inactive
- outcome (OVCAR-4 ovarian): inactive
- outcome (SK-MEL-2 melanoma): inactive
- outcome (SW-620 colon): inactive
- outcome (MDA-N): inactive
- outcome (SF-295 CNS): inactive
- outcome (A498 renal): inactive
- outcome (RPMI-8226 leukemia): inactive
- outcome (NCI-H522 lung): inactive
- outcome (HCT-116 colon): inactive
- outcome (PC-3 prostate): inactive
- outcome (KM12 colon): inactive
- outcome (HL-60(TB) leukemia): inactive
- outcome (SK-MEL-28 melanoma): inactive
- outcome (NCI-H23 lung): inactive
- outcome (UO-31 renal): inactive
- outcome (HCT-15 colon): inactive
- outcome (OVCAR-5 ovarian): inactive
- outcome (CCRF-CEM leukemia): inactive
- outcome (SNB-19 CNS): inactive
- outcome (HOP-62 NSCLC): inactive
- outcome (MCF7 breast): inactive
- outcome (BT-549 breast): inactive
- outcome (COLO 205 colon): inactive
- outcome (HT29 colon): inactive
- outcome (RXF 393 renal): inactive
